Assay results reported in US9358262B2, “Use of antioxidant-enriched fermented blueberry extracts in the treatment of diabetes” (priority 2003, dated 2016).
Marks after values point to notes of the source that are not given here.

System: KKA^y mice
Experiment: Chronic 4-week treatment of diabetic KKA^y mice in drinking water
Type: in vivo, mouse
Procedure: Mice were fasted for 16 h. A glucose solution was administered by intragastric gavage at a dose of 1 g/kg body weight. The blood glucose concentration was measured at 0, 30, 60, 90, 120 min after glucose administration in the blood collected from the tip of the tail vein, using an Accu-Chek glucose meter (Roche, Montreal, QC, Canada).
At the end of the experiment, blood samples were collected from renal artery during exsanguinations carried out under anesthesia using heparinized tools. The samples were centrifuged at 3000 g for 10 min at 4° C. The plasma samples were used for the analyses of biochemical parameters. Plasma adiponectin, insulin and leptin were measured using radioimmuno assay (RIA) kits (Millipore, Montreal, QC, Canada).
In preliminary experiments, three different doses of BJ, namely 20, 40, 80 ml/kg/day, were incorporated in the drinking water and provided to mice for one week. […] Therefore, this dose was used for the chronic treatment studies described here.
Forty-two 7 week-old KKA^y mice were randomly divided into 6 groups (n=7) which received either water, normal blueberry juice (NJ) (80 ml/kg/day), biotransformed blueberry juice (BJ) (80 ml/kg/day; prepared as described in Example 8), or Metformin (0.85 g/kg/day) (Meglasson M D et al., supra) in drinking water. […] The sixth and final group received SW but had unrestricted access to solid food. Baseline measurements of fed blood glucose levels, body weight, food intake and water consumption were taken daily at 11.00 a.m. At the onset of experiments and after 4 weeks, an oral glucose tolerance test (OGTT) was performed, as described in Example 8.

[1] = NJ, BJ 80 ml/kg/day, MET 0.85 g/kg/day, 4 weeks

For `CN(C)C(=N)N=C(N)N` [MET, Metformin], the “Rise of circulating adiponectin above values of control animals” value (4 weeks) was “neither NJ nor Metformin treatments could modify the low level of adiponectin”, the “Reduction of circulating insulin levels vs controls” value (4 weeks, BJ effect not statistically significant) was “normalized” and the “Drop of OGTT AUC between the onset and the end of treatment” value (4 weeks, glucose 1 g/kg by gavage) was 38%. For the same compound, the “Adiponectin (plasma)” value [1] was 5.9 ± 0.6^a μg/ml, the “Insulin (plasma)” value [1] was 1.7 ± 0.5^b ng/ml and the “Leptin (plasma)” value [1] was 27.6 ± 2.9^a ng/ml. The “Reduction of food intake as compared to controls” value [1] was 30%, the “Time to reach the maximum (BJ) or normalising (Metformin) effect on glycemia” value (chronic treatment in drinking water) was ≤ 4 days and the “Glycemia level (fed state)” value (during 4-week treatment) was 10 mM. For the same compound, the “Body weight loss as compared to controls” value (end of the 4-week treatment period) was 4%.
